The source of these data is US5461059A, “Derivatives of terbutylphenyl-1-amino-4-hydroxybutane their preparation processes and the pharmaceutical compositions containing them” (priority 1990, dated 1995).

Molecules are shown by their SMILES. Like-named read-outs stand apart in the source and are kept apart here.

Data set [1] concerns Central sites to benzodiazepines. In words: Affinity for central sites to benzodiazepines ([3H]-Flunitrazepam). Type of data set: binding. The following applies: rat whole brain; 0.3 nM [3H]-Flunitrazepam, pH 7.1; read-out: CI50 (the source's name).
Experimental: Central sites to benzodiazepines: whole brain, 90 mn at 0° C. in 50 mM TRIS-ClH buffer (pH 7.1) against 0.3 nM [^3 H]-Flunitrazepam.
For data set [2], the system named is bronchospasm due to histamine. Briefly: Bronchospasm to histamine aerosol in guinea pigs, oral. It is filed as in vivo, guinea pig. The following applies: single dosage 10 mg/kg.
Experimental: By oral way the single dosage of 10 mg/kg has been studied as a function of time.
The target of data set [3] is T1, H1-receptors of guinea pigs lungs (Cavia porcellus, UniProt P31389).
T1 construct: membranar preparations of homogenates of rat cortexes or guinea pig lungs; from tissue; host or cells: guinea pig lung membranes
In words: Affinity for H1 receptors, guinea pig lung membranes ([3H]Mepyramine). Type of data set: binding. The following applies: read-out: CI50 (50% inhibitory concentration) on H1 receptors, 2 nM tritiated Mepyramine, 30 mn, 25° C., pH 7.4.
Experimental: (§3) After 30 mn at 25° C. and at pH 7.4, in a 50 mM TRIS-ClH buffer for the membrans of the cortex or a 0.5 M PO4 HNa2 /PO4 H2 K buffer for the lungs membrans, the residual bound fraction of tritiated ligand is counted by scintillation in a liquid medium after filtration on an apparatur of the Brandel's type and several washings.

The next data set addresses receptors of H1-type (Cavia porcellus, UniProt P31389). In words: Histamine contraction of isolated ileon of guinea pig. The following applies: for activity compared with Terfenadine on isolated ileon: difference not significant. The text has this:
The shift of the relationship between contracturing effect and concentration of histamine by the compound to be studied, stamps an anti-H1 activity.

In another data set the target is T2, Adenosine A1 (Rattus norvegicus, UniProt P25099).
T2 construct: membranar receptors of various rats organs; from tissue; host or cells: rat cortex
T2 sequence (P25099 1-326): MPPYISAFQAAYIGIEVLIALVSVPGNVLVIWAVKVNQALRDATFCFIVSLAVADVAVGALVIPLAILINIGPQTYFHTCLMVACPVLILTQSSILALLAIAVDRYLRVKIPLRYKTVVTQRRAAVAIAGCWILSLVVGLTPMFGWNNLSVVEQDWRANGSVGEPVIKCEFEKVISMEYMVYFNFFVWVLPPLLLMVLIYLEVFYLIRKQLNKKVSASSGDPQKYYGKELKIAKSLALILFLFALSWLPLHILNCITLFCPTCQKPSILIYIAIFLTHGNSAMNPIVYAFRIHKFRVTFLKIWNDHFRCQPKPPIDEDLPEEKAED
In words: Affinity for adenosine A1 ([3H]cyclohexyladenosine). It is filed as binding. How it is done: (§1) A broad range of membranar receptors of various rats organs has been tested according to the same principle than the H1 receptor under the following conditions which are summarized:
Adenosine A1: cortex, 90 mn at 25° C. in 50 mM TRIS-ClH buffer (pH 7.7) against 1 nMol of [^3 H] cyclohexyladenosine
(§2) The more weak is the CI50, the more high is the affinity.

The target of data set [4] is T3, H1 receptors of rat cortexes (Rattus norvegicus, UniProt P31390).
T3 construct: membranar preparations of homogenates of rat cortexes or guinea pig lungs; from tissue; host or cells: rat cortex membranes
Briefly: Affinity for H1 receptors, rat cortex membranes ([3H]Mepyramine). Type of data set: binding. To be noted: read-out: CI50 (50% inhibitory concentration) on H1 receptors, 2 nM tritiated Mepyramine, 30 mn, 25° C., pH 7.4.
Experimental: as §3

The next data set has as its target T4, Muscarinic M1 (Rattus norvegicus, UniProt P08482).
T4 construct: membranar receptors of various rats organs; from tissue; host or cells: rat cortex, striatum and hippocampus (pool)
T4 sequence (P08482 1-460): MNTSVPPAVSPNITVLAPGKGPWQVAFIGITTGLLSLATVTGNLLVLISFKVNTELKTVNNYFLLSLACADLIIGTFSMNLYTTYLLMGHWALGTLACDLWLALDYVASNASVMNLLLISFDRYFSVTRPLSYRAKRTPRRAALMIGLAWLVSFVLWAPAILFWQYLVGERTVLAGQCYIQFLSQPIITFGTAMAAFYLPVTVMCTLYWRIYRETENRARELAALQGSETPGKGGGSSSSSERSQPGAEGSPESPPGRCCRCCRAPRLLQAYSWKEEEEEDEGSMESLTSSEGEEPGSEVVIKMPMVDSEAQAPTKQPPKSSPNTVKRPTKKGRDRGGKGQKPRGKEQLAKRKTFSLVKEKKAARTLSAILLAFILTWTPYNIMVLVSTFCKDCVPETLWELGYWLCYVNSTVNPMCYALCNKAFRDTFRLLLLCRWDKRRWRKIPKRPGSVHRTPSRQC
Briefly: Affinity for muscarinic M1 ([3H]-pirenzepine). It is filed as binding. The following applies: rat cortex, striatum and hypocampus; 2 nM [3H]-pirenzepine, pH 7.4; read-out: CI50 (the source's name).

In a further data set the target is T5, Adenosine A2 (Rattus norvegicus, UniProt P30543).
T5 construct: membranar receptors of various rats organs; from tissue; host or cells: rat striatum
In words: Affinity for adenosine A2 ([3H]NECA). Type of data set: binding. How it is done:
as §1
Adenosine A2: striatum 60 mn at 25° in 50 mM TRIS-ClH buffer (pH 7.7) added with 50 nM cyclopentyladenosine, 10 mM Cl2 Mg and 0.1 Unit/ml […] against 4 nM of [^3 H] NECA (5'-N-ethylcarboxamido adenosine).
as §2

Data set [5] concerns bronchospasm due to histamine. Briefly: Bronchospasm to histamine aerosol in guinea pigs, intraperitoneal. The following applies: for ED50: Cavia porcellus, ip, 0.5 h, read-out: ED50 (efficient dosage at 50%) against histamine bronchospasm. Type of data set: in vivo, guinea pig. How it is done:
Inhalating an aerosol at 1%, of histamine (aqeuous solution in distilled water, nebulization with a apparatus HOSPITAK) causes in the guinea pigs, a bronchospasm which leads with immobilization of the animals on their own side. The time needed for the animals to lie down is measured for 5 minutes maximum.

A further data set concerns the target T6, Muscarinic M2 (Rattus norvegicus, UniProt P10980).
T6 sequence (P10980 1-466): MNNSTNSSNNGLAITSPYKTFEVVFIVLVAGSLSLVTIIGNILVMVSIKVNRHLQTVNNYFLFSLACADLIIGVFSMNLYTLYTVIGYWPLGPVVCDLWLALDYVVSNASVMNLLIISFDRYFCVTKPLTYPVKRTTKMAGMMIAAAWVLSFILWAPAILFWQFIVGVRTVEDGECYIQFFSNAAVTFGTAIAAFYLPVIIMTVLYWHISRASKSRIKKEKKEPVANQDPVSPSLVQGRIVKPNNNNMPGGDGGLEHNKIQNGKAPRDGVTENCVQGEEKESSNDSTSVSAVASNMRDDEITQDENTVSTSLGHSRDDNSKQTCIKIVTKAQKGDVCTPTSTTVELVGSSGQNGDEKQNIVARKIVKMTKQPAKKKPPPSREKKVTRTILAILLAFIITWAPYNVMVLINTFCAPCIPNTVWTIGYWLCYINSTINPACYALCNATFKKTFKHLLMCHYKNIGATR
Briefly: biochemical. Type of data set: binding.

A further data set has as its target T7, GABAB (Rattus norvegicus, UniProt Q9Z0U4).
T7 construct: membranar receptors of various rats organs; from tissue; host or cells: rat cerebellum
In words: Affinity for GABAB ([3H]Baclofen). Type of data set: binding. Here is the method:
as §1
GABAB : Cerebellum, 10 mn at 22° C. in 50 mM TRIS-ClH buffer (pH 7.4) added to 1.2 mM SO^4 Mg and 2.5 mM Cl2 Ca, against 20 nM of [^3 H] Baclofen.
as §2

The next data set deals with T8, Sigma receptor (Rattus norvegicus, UniProt Q9R0C9).
T8 construct: membranar receptors of various rats organs; from tissue; host or cells: rat whole brain
Briefly: Affinity for Sigma receptors ([3H](+)3-PPP). Type of data set: binding. Here is the method:
as §1
Sigma receptors: whole brain, 2 hours at 22° C. in 50 mM TRIS-ClH buffer (pH 8) against 2 nM of [^3 H] (+)3-PPP (3-(3-hydroxyphenyl)N-(1-propyl) piperidine).
as §2

Data set [6] is described as follows: Single maximal non-toxic dosage by oral way in mice. It is filed as in vivo. The following applies: single oral dosage until 1000 mg/kg. Here is the method:
On the other side a mydriasis has been noticed after 3 hours. […] This is less fine than the Irvin's Test during which the animals are handled and interact with the experimenter.

Data set [7] deals with T9, Peripheral sites to the benzodiazepines (Rattus norvegicus, UniProt P16257).
T9 construct: membranar receptors of various rats organs; from tissue; host or cells: rat cortex
Briefly: Affinity for peripheral sites to benzodiazepines ([3H]PK 11195). Type of data set: binding. Here is the method: as §1
Peripheral sites to the benzodiazepines: Cortex 90 mn at 25° C. in 90 mM PO4 HNa2 /PO4 H2 K buffer, 81 mM ClNa and […] (pH 7.4) against 1 nM [^3 H]PK 11195.
as §2

The format of data set [8] is in vivo, mice. From the text: The principle of this test consists in chronometering the duration for which mice maintain itself on a rod rotating at a constant speed. Compounds which are endowed with sedative or myorelaxing or inhibitory of the motor coordination, will induce a precocious fall, before 120 seconds which are the maximals period of study. […] This test takes place 30 mn and 60 mn after administration. […] Chlorpromazine, major neuroleptic used as positive standard in the Rota-rod Test, caused the fall before the time granted, of 90% of the mice from the dosage of 4 mg/kg by intraperitoneal way.

Another data set relates to GABAA. Briefly: Affinity for GABAA ([3H]Muscimol). Type of data set: binding. The following applies: rat whole brain; 5 nM [3H]Muscimol, pH 7.2; read-out: CI50 (the source's name).
Data set [9] in a line: Irwin's test (modified, Morpurgo), behaviour in mice. It is filed as in vivo. To be noted: oral. Here is the method:
The Irwin's test, modified according to Morpurgo's Technique (1971) has been carried out to search optional alterations of the spontaneous behaviour under the action of the compound of example III or of a H1-antihistaminic of the first generation Dexchloropheniramine, known to induce some effects of drowsiness in the person. After administration by oral way, the mice have been kept under observation for 30 mn then have submitted to a seri. of simple test of behavioural screening after 30 mn, 3 hours and 24 hours.

Where [10] appears, read: rat cortex, 1 nMol [3H]cyclohexyladenosine, pH 7.7, read-out: CI50 (the source's name).
Where [11] appears, read: rat striatum, 4 nM [3H]NECA, pH 7.7, read-out: CI50 (the source's name).
[12] abbreviates: intraperitoneal, 10 mg/kg, 30 minutes after administration.
Where [13] appears, read: rat cerebellum, 20 nM [3H]Baclofen, pH 7.4, read-out: CI50 (the source's name).
The mark [14] stands for this setting: rat cortex, 1 nM [3H]PK 11195, pH 7.4, read-out: CI50 (the source's name).

T5 sequence (P30543 whole entry): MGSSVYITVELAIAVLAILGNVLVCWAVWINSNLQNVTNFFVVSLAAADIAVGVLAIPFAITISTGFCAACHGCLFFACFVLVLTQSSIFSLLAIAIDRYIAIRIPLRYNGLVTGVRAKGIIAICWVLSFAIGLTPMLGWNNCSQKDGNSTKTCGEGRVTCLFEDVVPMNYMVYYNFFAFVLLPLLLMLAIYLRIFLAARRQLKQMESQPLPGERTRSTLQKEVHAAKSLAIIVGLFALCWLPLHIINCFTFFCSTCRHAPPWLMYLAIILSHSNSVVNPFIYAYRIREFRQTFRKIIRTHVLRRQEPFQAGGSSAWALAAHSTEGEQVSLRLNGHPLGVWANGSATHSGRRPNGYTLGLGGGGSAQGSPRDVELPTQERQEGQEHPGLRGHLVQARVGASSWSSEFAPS
Sequence of receptors of H1-type (P31389 whole entry): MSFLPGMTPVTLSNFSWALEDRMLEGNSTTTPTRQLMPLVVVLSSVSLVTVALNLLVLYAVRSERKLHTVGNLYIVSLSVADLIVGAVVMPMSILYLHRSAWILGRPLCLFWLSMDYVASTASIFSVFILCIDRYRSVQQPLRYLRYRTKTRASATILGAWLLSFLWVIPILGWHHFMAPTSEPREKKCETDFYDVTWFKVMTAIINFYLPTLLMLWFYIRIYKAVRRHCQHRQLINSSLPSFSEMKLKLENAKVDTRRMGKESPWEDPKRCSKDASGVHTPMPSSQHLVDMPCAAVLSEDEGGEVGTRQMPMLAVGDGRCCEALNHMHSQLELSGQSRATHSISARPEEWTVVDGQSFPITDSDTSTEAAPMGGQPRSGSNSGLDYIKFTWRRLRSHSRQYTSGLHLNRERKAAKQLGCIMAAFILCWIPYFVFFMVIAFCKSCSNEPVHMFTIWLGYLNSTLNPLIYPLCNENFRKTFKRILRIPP
T7 sequence (Q9Z0U4 17-960 limits assumed): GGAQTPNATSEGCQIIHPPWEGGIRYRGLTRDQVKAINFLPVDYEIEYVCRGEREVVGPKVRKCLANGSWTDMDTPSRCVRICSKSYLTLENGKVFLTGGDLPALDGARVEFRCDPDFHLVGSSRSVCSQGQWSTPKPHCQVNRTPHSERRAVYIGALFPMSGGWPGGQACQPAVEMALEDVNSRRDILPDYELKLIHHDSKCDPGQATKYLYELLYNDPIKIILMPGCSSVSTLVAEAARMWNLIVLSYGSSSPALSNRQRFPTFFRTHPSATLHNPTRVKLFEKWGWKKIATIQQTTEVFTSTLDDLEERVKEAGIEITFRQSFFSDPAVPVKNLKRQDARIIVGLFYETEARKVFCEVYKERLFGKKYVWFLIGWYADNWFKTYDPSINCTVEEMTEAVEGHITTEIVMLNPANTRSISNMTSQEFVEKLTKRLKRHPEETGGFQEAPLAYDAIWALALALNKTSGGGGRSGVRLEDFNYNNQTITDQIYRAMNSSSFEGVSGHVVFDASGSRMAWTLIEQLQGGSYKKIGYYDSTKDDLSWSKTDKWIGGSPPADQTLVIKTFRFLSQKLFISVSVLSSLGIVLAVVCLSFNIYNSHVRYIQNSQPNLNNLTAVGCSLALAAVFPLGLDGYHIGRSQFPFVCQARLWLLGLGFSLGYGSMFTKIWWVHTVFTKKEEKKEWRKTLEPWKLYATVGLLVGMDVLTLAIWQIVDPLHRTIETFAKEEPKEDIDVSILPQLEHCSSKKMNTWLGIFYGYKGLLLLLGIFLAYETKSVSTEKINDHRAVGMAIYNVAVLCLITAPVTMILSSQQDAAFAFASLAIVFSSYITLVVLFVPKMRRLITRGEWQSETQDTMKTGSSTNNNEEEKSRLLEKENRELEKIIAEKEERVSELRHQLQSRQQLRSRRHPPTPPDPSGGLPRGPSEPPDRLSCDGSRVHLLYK
T7 sequence (O88871 41-940 partner): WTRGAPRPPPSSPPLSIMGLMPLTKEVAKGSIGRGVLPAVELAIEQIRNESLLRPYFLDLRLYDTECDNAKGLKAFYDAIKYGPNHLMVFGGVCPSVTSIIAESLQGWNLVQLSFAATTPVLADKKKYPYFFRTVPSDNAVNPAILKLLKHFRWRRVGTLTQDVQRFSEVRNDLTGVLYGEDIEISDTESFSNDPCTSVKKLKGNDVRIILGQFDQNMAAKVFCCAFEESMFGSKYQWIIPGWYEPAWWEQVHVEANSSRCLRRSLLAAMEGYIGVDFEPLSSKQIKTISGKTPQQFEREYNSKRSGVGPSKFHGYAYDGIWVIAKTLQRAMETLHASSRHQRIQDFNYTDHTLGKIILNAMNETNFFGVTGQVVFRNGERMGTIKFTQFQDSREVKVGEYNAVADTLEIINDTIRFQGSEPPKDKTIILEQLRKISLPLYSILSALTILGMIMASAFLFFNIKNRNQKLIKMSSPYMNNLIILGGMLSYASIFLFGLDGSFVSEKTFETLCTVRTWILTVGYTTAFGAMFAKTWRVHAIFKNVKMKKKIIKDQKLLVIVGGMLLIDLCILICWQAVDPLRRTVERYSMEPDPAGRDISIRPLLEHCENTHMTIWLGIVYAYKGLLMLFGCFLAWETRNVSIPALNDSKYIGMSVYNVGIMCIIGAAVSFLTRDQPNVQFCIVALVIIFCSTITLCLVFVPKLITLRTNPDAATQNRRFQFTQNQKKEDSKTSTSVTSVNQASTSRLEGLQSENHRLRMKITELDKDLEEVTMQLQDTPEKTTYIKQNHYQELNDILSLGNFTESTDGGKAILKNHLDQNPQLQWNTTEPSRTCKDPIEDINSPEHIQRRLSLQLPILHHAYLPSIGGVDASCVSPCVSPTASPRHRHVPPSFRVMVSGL
T8 sequence (Q9R0C9 whole entry): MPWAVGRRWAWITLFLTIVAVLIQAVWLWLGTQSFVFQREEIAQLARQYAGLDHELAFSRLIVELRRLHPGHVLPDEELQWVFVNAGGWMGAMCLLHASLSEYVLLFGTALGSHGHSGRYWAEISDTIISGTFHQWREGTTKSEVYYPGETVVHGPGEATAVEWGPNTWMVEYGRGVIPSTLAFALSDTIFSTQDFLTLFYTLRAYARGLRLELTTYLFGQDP
T1 sequence (P31389 whole entry): as the sequence (P31389 whole entry) above
T3 sequence (P31390 whole entry): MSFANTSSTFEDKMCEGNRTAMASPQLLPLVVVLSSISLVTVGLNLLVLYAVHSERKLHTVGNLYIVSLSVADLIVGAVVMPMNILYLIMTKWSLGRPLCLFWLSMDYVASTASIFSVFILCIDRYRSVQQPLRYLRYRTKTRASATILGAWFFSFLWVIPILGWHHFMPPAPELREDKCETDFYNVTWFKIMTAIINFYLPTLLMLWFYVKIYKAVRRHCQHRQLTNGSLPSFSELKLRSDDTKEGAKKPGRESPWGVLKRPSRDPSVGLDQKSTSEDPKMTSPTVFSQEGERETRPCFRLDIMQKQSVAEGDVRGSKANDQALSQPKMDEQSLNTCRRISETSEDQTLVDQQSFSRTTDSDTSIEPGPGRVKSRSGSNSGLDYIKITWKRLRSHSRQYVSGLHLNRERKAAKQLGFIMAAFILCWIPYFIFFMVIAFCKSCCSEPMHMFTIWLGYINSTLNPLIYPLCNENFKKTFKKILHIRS
Experimental for GABAA: GABAA : whole brain 20 mn at 4° C., in 50 nM TRIS-ClH buffer (pH 7.2) added to 0.5%. TRITON X-100, against 5 nM [^3 H] Muscimol.
Experimental for Muscarinic M1: Muscarinic M1: pool of cortex, striatum and hypocampus, 60 mn at 25° C. in 10 mM PO4 HNa2 /PO4 H2 K buffer (pH 7.4) against 2 nM [^3 H]-pirenzepinc.

The term ED50 denotes the dose at which the effect has come halfway, by size or by number of responders. With `CC(C)(C)c1ccc(C(O)CCCN2CCN(c3nc4ccccc4n3Cc3ccc(F)cc3)CC2)cc1` (centres unmarked) [example III], the IC50 in data set [1] was above 10 µM; in data set [3], 2.7 µM; on Adenosine A1 (setting [10]) it was above 10 µM; in data set [4], 1.1 µM; on Muscarinic M1, above 10 µM; on Adenosine A2 (setting [11]), above 10 µM. In addition, the IC50 is above 10 µM on Muscarinic M2 (pH 7.5, read-out: CI50 (the source's name)); above 10 µM on GABAB (setting [13]); above 10 µM at Sigma receptor (rat whole brain, 2 nM [3H](+)3-PPP, pH 8, read-out: CI50 (the source's name)); above 10 µM in data set [7] (setting [14]); above 10 µM in the data set with GABAA. The “duration of protection against histamine bronchospasm” value in data set [2] came to 12 h. In addition, the “animals with total protection (more than 5 minutes) at 24 hours” value in [2] (24 hours) is 50%. In addition, the results for the “effect on histamine contraction of isolated ileon” value on receptors of H1-type (10^-5 M), on receptors of H1-type (10^-6 M) and on receptors of H1-type (10^-7 M) were “partially irreversible inhibition”, “inhibition of the competitive type” and “no effect”, respectively. The entries for the “activity compared with Terfenadine on isolated ileon” value at receptors of H1-type (10^-5 M) and at receptors of H1-type (10^-6 M) were “the opposite seems to be produced” and “slightly more active than Terfenadine”, respectively. For the same compound, the ED50 in data set [5] (intraperitoneal, from regression curve) was around 6.7 mg/kg. Moreover, the “protection against histamine bronchospasm” value was “poorly efficient” in data set [5] (intraperitoneal) and “total protection of all the animals” in data set [5] (setting [12]). For the same compound, in data set [6], the “clinical symptoms, search for maximal non-toxic dosage” value is recorded as “do not display any clinical symptom”. Moreover, the “alteration of rota-rod performance” value in data set [8] (oral, until highest tested dosage 100 mg/kg, 30 and 60 mn, versus vehicle) is listed as “did not alter the performances”. Also, the “behavioural alteration (Irwin's test)” value in [9] (maximal tested dosage 400 mg/kg, at 3 hours only) is “a very weak passivity in half of the animals”.
Consider `COc1ccc(CN(CCN(C)C)c2ccccn2)cc1` [Mepyramine], for which the IC50 in data set [1] is above 10 µM; at Adenosine A1 (setting [10]), above 10 µM; on Adenosine A2 (setting [11]) it was above 10 µM; at Muscarinic M2, 3.5 µM; on GABAB (setting [13]) it was above 10 µM; against Sigma receptor it was 0.59 µM. For the same compound, the IC50 (in data set [7] (setting [14]); with GABAA) was above 10 µM in each case. In addition, the “affinity for Sigma-receptor, times weaker than pentazocine” value at Sigma receptor (versus pentazocine) was around 20 times weaker.
`CN(C)CC[C@@H](c1ccc(Cl)cc1)c1ccccn1` [Dexchlorpheniramine]: in [9] (100 mg/kg, 30 mn), the “behavioural alteration (Irwin's test)” value was “a hyperactivity and a slight irritability”. The “behavioural alteration (hyperactivity and slight irritability)” value in data set [9] (100 mg/kg, 3 hours) was “persisting”; in [9] (100 mg/kg, 24 hours), “disappearing”. In addition, the “ocular effect (Irwin's test)” value in data set [9] (100 mg/kg, after 3 hours) was “mydriasis”.
Take `CN(C)CCCN1c2ccccc2Sc2ccc(Cl)cc21` [Chlorpromazine]: in data set [8] (intraperitoneal, from 4 mg/kg), the “mice falling before the time granted (120 seconds)” value was 90%.
As to `CC(C)(C)c1ccc(C(O)CCCN2CCC(C(O)(c3ccccc3)c3ccccc3)CC2)cc1` (centres unmarked) [Terfenadine], the IC50 (in data set [1]; on Adenosine A1; against Adenosine A2; at Muscarinic M2; against GABAB; against Sigma receptor) was above 10 µM in each case. The IC50 (in data set [7]; with GABAA) was above 10 µM throughout. The “duration of protection against histamine bronchospasm” value in data set [2] was 4 h. In data set [5], the median effective dose (ED50) was around 7 mg/kg. Besides, the “protection against histamine bronchospasm” value in data set [5] (intraperitoneal) is given as “poorly efficient”; in data set [5] (setting [12]) it was “total protection of all the animals”.
